# Data published in US20240316046A1, “ERK1/2 INHIBITOR COMBINATION THERAPY” (Asana Biosciences, LLC, priority 2021, published 2024).
# Assays:
# [1] = test system: cell lines harboring a BRAF^V600E mutation (RKO, HT-29, WiDr, MDST8, LIM2405 cells); experiment: In-vitro 3D cell viability assay (CellTiter-Glo 3D), dilution matrix of compound 1 versus encorafenib, BLISS model; type: cell-based, human; details: compound 1 combined with encorafenib, 5 days post-treatment, FIG. 1A-1E
# Experimental: Cells were plated at a density of 1,000 (RKO, HT-29, WiDr, MDST8) or 5,000 (LIM2405) cells per well in a 96-well plate (Corning #3903). Cells were allowed to adhere overnight, and compound was added in a matrix format using a HP Tecan D300e digital dispenser (Switzerland). Compound 1 was added in a 1:3 dilution series (8-point dose response) from bottom to top of plate (rows B-H) and encorafenib was added in a 1:3 dilution series ([…] dose response) from right to left (columns 2-11). Final DMSO concentration was normalized across the plate. Cell viability was assessed 5-days post-treatment using Promega CellTiter-Glo 3D Cell Viability Assay reagent (#G9683) according to manufacturer's protocol.
# RKO cells (FIG. 1A), HT-29 cells (FIG. 1B), WiDr cells (FIG. 1C), MDST8 cells (FIG. 1D), and LIM2405 (FIG. 1E) were treated with a dilution matrix of compound 1 versus encorafenib in 3D cell viability assays. Cell viability, as expressed as a percentage of viable cells relative to vehicle treated control, is shown in the matrix.
# [2] = test system: encorafenib refractory-BRAF^V600E RKO and WiDr CDX models; experiment: In-vivo assay, tumor growth in xenograft (CDX) models; parameters: species or system Female Balb/c nude mice; details: compound 1 combined with encorafenib, oral, FIG. 2A, 2B
# Experimental: The vehicle/control article, 0.5% Methyl Cellulose & 0.1% Tween 80 or 100 mM acetic acid in deionized water with pH adjustment to 4.8-5.0, was prepared and stored under ambient conditions throughout the study period.
# The test article compound 1 was freshly prepared in vehicle of 0.5% Methyl Cellulose & 0.1% Tween 80 weekly and stored under ambient conditions. The combination agent, encorafenib, was freshly prepared in vehicle of 0.5% CMC and 0.5% Tween 80 weekly and stored at 2-8° C.
# Female Balb/c nude mice were purchased from the Beijing Vital River Laboratory Animal Technology Co., Ltd. Mice were hosted at special pathogen-free (SPF) environment of vivarium facility and acclimated to their new environment for at least 3 days prior to initiation of any experiments. Mice were between 6-8 weeks of age at the time of implantation.
# RKO is a human CRC tumor cell line that harbors a BRAF^V600E mutation. The RKO cell line was purchased from the American Type Culture Collection (ATCC® CRL-2577™). RKO cells were cultured in medium containing EMEM plus 10% Fetal Bovine Serum (FBS) supplemented with non-essential amino acids at 37° C. in an atmosphere of 5% CO2 in air. RKO cells in 200 μL cell suspensions containing 2×10^6 cells mixed with 50% Matrigel were implanted into mice subcutaneously. […]
# [3] = test system: RAS/MAPK pathway (P-RSK, P-ERK) in BRAF V600E mutant CRC cell lines RKO and HT-29; experiment: Western blot of phosphorylation of RSK (P-RSK) and ERK (P-ERK), encorafenib in combination with MEK and ERK inhibitors; type: cell-based, human; details: plus BRAF inhibitor encorafenib; incubation up to 72 hours; Compound 1 at one-tenth the concentration used for the MEK and other ERK inhibitors; FIG. 3A-3D
# Description: Treatment of two BRAF V600E mutant CRC cell lines, RKO and HT-29, with encorafenib in combination with the MEK inhibitor binimetinib, the ERK inhibitor Compound 1, the ERK inhibitor LY3214996, and the ERK inhibitor ravoxertinib. The Western blot gels depict phosphorylation of RSK (P-RSK) and ERK (P-ERK). Higher levels of phosphorylation are depicted by higher (i.e., darker) band intensity. Total GAPDH protein (GAPDH) serves as a loading control. ERK signaling activity is represented by the phosphorylation state of RSK (P-RSK), which is a downstream target of ERK. The column values indicate the duration of compound incubation of up to 72 hours. FIG. 3A-FIG. 3D.
Structure (SMILES),"combination benefit in vitro (cell viability, BLISS model) [1]",combination benefit in vivo (tumor growth curves) [2],"RAS/MAPK pathway feedback reactivation (P-RSK, P-ERK) [3]"
"Cc1cnc(NC2CCOCC2)nc1-n1cnc(C(=O)N[C@H](CN)c2cc(F)cc(Cl)c2)c1 [Compound 1, (S)-N-(2-amino-1-(3-chloro-5-fluorophenyl)ethyl)-1-(5-methyl-2-((tetrahydro-2H-pyran-4-yl)amino)pyrimidin-4-yl)-1H-imidazole-4-carboxamide]",combination benefit,combination benefit,blocked the RAS/MAPK pathway feedback reactivation
"COC(=O)N[C@@H](C)CNc1nccc(-c2cn(C(C)C)nc2-c2cc(Cl)cc(NS(C)(=O)=O)c2F)n1 [encorafenib, Encorafenib, reference compound]",combination benefit,combination benefit,–
